Experimental data taken from the NIST ThermoML archive (doi:10.1016/j.fluid.2008.02.001).
“And” between values parts separate entries of the source, which are not always exact repeats. Equal entries are not always repeated. Numbers after ± are expanded uncertainties.

Settings: Liquid, Transpiration method

COC(=O)CC(C)(C)C [methyl 3,3-dimethylbutanoate]
Settings | vapor or sublimation pressure [kPa]
273.9 K | 0.3046 ± 0.022
274.4 K | 0.3169 ± 0.023
275.9 K | 0.3519 ± 0.025
277.4 K | 0.3954 ± 0.028
278.7 K | 0.436 ± 0.031
279.5 K | 0.4645 ± 0.033
281.5 K | 0.5226 ± 0.037
282.5 K | 0.5675 ± 0.04
283.3 K | 0.5937 ± 0.042
285.5 K | 0.6878 ± 0.049
288.2 K | 0.8223 ± 0.057
288.6 K | 0.8158 ± 0.057
291.6 K | 0.9977 ± 0.071
293.2 K | 1.131 ± 0.08
294.6 K | 1.195 ± 0.084
297.7 K | 1.436 ± 0.11
298.2 K | 1.533 ± 0.11
301.8 K | 1.854 ± 0.13
303.2 K | 2.042 ± 0.14
303.8 K | 2.089 ± 0.15
306.9 K | 2.498 ± 0.18
308.2 K | 2.737 ± 0.19
309 K | 2.783 ± 0.19
313.2 K | 3.591 ± 0.25

CCCC(=O)OC [methyl butanoate]
Settings | vapor or sublimation pressure
274.3 K | 1.06 ± 0.077 kPa
276.4 K | 1.292 ± 0.092 kPa
278.2 K | 1.397 ± 0.098 kPa
279.4 K | 1.492 ± 0.1 kPa
281.3 K | 1.627 ± 0.12 kPa
281.6 K | 1.705 ± 0.13 kPa
283.4 K | 1.854 ± 0.15 kPa
283.7 K | 1.965 ± 0.16 kPa
285.5 K | 2.102 ± 0.17 kPa
285.8 K | 2.24 ± 0.18 kPa
288.3 K | 2.537 ± 0.18 kPa and 2.523 ± 0.18 kPa and 2.466 ± 0.17 kPa
290.3 K | 2.927 ± 0.21 kPa
291.2 K | 3.085 ± 0.22 kPa and 2.937 ± 0.21 kPa
292.2 K | 3.214 ± 0.23 kPa
293.2 K | 3.382 ± 0.24 kPa
294.3 K | 3.717 ± 0.27 kPa
295.3 K | 4.065 ± 0.29 kPa
298.1 K | 4.479 ± 0.32 kPa
300.2 K | 5.224 ± 0.37 kPa
301.2 K | 5.303 ± 0.37 kPa
303.2 K | 5.697 ± 0.4 kPa

CCCCCCC(=O)OC [methyl heptanoate]
Settings | vapor or sublimation pressure [kPa]
278.1 K | 0.03453 ± 0.0025
283.5 K | 0.05365 ± 0.0038
286.4 K | 0.06767 ± 0.0048
288.3 K | 0.0791 ± 0.0056
290.3 K | 0.09122 ± 0.0065
293.2 K | 0.1164 ± 0.0083
296.2 K | 0.1424 ± 0.01
298.2 K | 0.1642 ± 0.012
300.3 K | 0.1892 ± 0.013
303.1 K | 0.2326 ± 0.017
306.1 K | 0.2838 ± 0.02
308.2 K | 0.3321 ± 0.024
310.2 K | 0.3804 ± 0.027
313.2 K | 0.4658 ± 0.033

CCCCCC(=O)OC [methyl hexanoate]
Settings | vapor or sublimation pressure
280.7 K | 0.1387 ± 0.0099 kPa
283.6 K | 0.1707 ± 0.012 kPa
284.6 K | 0.1839 ± 0.013 kPa
286.6 K | 0.2147 ± 0.015 kPa
287.6 K | 0.2219 ± 0.016 kPa
289.5 K | 0.2598 ± 0.018 kPa
290.5 K | 0.2793 ± 0.02 kPa and 0.2693 ± 0.019 kPa
292.5 K | 0.3111 ± 0.022 kPa
293.3 K | 0.3367 ± 0.024 kPa
293.4 K | 0.3489 ± 0.025 kPa
293.5 K | 0.3435 ± 0.024 kPa
295.4 K | 0.3851 ± 0.027 kPa
296.4 K | 0.4226 ± 0.03 kPa
298.3 K | 0.4594 ± 0.033 kPa
298.4 K | 0.4697 ± 0.033 kPa
300.3 K | 0.5403 ± 0.038 kPa
303.3 K | 0.6501 ± 0.046 kPa
304.3 K | 0.7261 ± 0.051 kPa
308.3 K | 0.8925 ± 0.063 kPa
309.3 K | 0.9193 ± 0.065 kPa
312.3 K | 1.147 ± 0.081 kPa and 1.048 ± 0.075 kPa
316.3 K | 1.458 ± 0.1 kPa
320.4 K | 1.764 ± 0.12 kPa
324.4 K | 2.217 ± 0.16 kPa
328.4 K | 2.678 ± 0.19 kPa
331.4 K | 3.178 ± 0.22 kPa

CCCCC(=O)OC [methyl pentanoate]
Settings | vapor or sublimation pressure
274.9 K | 0.3386 ± 0.024 kPa
275.2 K | 0.3442 ± 0.024 kPa
278.2 K | 0.4198 ± 0.03 kPa
279.4 K | 0.4589 ± 0.033 kPa
281.2 K | 0.5173 ± 0.037 kPa
282.6 K | 0.5608 ± 0.04 kPa
284.2 K | 0.6396 ± 0.047 kPa
284.3 K | 0.6 ± 0.043 kPa
284.5 K | 0.6182 ± 0.044 kPa
285.5 K | 0.6907 ± 0.049 kPa
287.4 K | 0.7539 ± 0.053 kPa
288.4 K | 0.7888 ± 0.056 kPa and 0.7837 ± 0.056 kPa
288.5 K | 0.8195 ± 0.059 kPa
288.7 K | 0.8268 ± 0.061 kPa
289.2 K | 0.873 ± 0.062 kPa
290.3 K | 0.9304 ± 0.066 kPa
292.4 K | 1.029 ± 0.072 kPa
293.3 K | 1.09 ± 0.078 kPa
293.4 K | 1.125 ± 0.081 kPa
294.5 K | 1.227 ± 0.087 kPa
296.2 K | 1.327 ± 0.094 kPa
297.5 K | 1.511 ± 0.11 kPa
298.3 K | 1.517 ± 0.11 kPa
299.2 K | 1.615 ± 0.11 kPa and 1.582 ± 0.11 kPa
302.2 K | 1.974 ± 0.14 kPa and 1.937 ± 0.14 kPa
305.2 K | 2.273 ± 0.16 kPa
308.2 K | 2.653 ± 0.19 kPa
311.2 K | 3.11 ± 0.22 kPa
